Results on 24 molecules are retold here after ChEMBL document CHEMBL5226282, “TLR2 Agonistic Small Molecules: Detailed Structure-Activity Relationship, Applications, and Future Prospects” (J Med Chem, 2021).

*1 amine or outer side, *2 acyl side, *3 side chain or, on linkers, in order; H or OH if unused. Where a SMILES comes first, the peptide text is derived from it. [ ]: non-standard residue; d: D form. The star is where a group is joined. X1 = CCCCCCCCCCCCCCCC(=O)OCC(CCCC(N[*:1])C(=O)[*:2])OC(=O)CCCCCCCCCCCCCCC; X2 = CCCCCCCCCCCCCCCC(=O)OCC(C*)OC(=O)CCCCCCCCCCCCCCC; Palmitoyl = CCCCCCCCCCCCCCCC(=O)*

Assay [1] deals with T1, Toll-like receptor 2 (Homo sapiens, UniProt O60603). The experiment in a line: Agonist activity at human TLR2 transfected in HEK293 cells relative to control. In kind it is cell-based.
The target in assay [2] is T1, Toll-like receptor 2. The experiment in a line: Agonist activity at human TLR2 transfected in HEK293 cells. Type of assay: cell-based.
In assay [3] the target is T2, Toll-like receptor 1/2 (Homo sapiens, UniProt O60603+Q15399). The experiment in a line: Agonist activity at TLR2/TLR1 (unknown origin). Type of assay: protein-complex assay.
Assay [4] concerns the target TLR2/TLR6 (Homo sapiens) (UniProt O60603+Q9Y2C9). In words: Agonist activity at TLR2/TLR6 (unknown origin) assessed as induction of IL-8 production relative to control. In kind it is protein-complex assay.
For assay [5], the target named is T2, Toll-like receptor 1/2. The experiment in a line: Agonist activity at TLR2/TLR1 (unknown origin) assessed as induction of IL-8 production relative to control. Type of assay: protein-complex assay. As to conditions: filed as agonist.
The target of assay [6] is T1, Toll-like receptor 2. The experiment in a line: Agonist activity at TLR2 (unknown origin).
Assay [7] deals with T1, Toll-like receptor 2. In words: Binding affinity to TLR2 (unknown origin).

What is called EC50 is the concentration needed to bring the measured effect to its halfway point. High values mean weaker potency, low ones greater potency. What is called Ki is a measure of affinity in units of concentration, obtained from inhibition or displacement. High values mean lower affinity, low ones higher affinity. Usually IC50 stands for the concentration at which inhibition is half-maximal.

T1 sequence (O60603 whole entry): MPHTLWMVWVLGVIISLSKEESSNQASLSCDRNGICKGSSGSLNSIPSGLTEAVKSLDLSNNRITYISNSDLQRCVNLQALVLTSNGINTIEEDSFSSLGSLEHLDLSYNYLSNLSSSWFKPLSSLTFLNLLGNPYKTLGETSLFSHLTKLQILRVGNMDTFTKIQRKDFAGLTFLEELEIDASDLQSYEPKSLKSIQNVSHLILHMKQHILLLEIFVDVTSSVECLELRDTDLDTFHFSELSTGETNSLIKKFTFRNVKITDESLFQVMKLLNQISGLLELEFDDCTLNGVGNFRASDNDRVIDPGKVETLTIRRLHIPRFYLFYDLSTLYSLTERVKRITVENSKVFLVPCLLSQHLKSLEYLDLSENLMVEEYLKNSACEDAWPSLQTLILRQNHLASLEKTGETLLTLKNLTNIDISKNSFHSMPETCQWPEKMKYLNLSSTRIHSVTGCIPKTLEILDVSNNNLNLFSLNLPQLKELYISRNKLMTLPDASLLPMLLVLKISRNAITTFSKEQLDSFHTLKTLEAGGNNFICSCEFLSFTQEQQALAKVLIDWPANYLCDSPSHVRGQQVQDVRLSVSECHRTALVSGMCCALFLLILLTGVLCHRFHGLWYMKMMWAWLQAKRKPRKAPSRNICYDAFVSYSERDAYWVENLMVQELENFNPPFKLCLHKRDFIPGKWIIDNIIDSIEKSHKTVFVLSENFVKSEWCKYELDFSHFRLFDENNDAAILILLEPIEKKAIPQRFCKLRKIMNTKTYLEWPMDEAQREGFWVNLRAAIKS
T2 sequence (O60603 whole entry): as above
T2 sequence (Q15399 whole entry): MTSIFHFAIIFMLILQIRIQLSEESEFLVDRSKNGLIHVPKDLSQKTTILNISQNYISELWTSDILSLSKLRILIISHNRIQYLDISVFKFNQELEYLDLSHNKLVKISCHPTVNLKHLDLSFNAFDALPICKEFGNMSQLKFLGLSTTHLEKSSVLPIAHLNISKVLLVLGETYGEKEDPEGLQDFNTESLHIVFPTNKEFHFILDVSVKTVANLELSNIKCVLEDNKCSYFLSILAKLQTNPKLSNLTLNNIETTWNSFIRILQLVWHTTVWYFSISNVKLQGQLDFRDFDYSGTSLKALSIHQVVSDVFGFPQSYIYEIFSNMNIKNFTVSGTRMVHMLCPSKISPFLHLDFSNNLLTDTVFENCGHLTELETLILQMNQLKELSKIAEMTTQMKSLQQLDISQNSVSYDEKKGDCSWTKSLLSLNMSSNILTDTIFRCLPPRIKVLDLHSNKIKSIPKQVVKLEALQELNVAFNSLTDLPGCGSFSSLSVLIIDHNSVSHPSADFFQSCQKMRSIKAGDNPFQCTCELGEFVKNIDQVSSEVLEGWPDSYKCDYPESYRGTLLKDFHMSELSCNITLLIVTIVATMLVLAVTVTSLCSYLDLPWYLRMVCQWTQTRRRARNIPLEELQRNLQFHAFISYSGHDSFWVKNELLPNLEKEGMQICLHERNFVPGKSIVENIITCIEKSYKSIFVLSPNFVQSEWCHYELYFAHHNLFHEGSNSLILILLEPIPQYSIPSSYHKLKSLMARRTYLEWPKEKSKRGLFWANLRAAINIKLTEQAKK

In the case of `CCCCCCCC(=O)OC[C@H](CSC[C@@H](N)C(=O)NCCOCCOCCOCCP(=O)(O)O)OC(=O)CCCCCCC`, the concentration giving a half-maximal response (EC50) in assay [1] and in assay [2] was 3040 nM each time. Take `CCCCCCCCCCCCOC[C@H](CSC[C@@H](N)C(=O)NCCOCCOCCOCCP(=O)(O)O)OCCCCCCCCCCCC`: the EC50 in assay [1] and in assay [2] was 550 nM throughout. `CNc1ccc([N+](=O)[O-])cc1-n1cnc(-c2ccc([N+](=O)[O-])cc2)c1` gave an EC50 in assay [3] of 2510 nM. Take `CCCCCCCCNC(=O)OC[C@H](CSC[C@@H](N)C(=O)NCCOCCOCCOCCP(=O)(O)O)OC(=O)NCCCCCCCC`: the EC50 in assay [1] and in assay [2] was 7030 nM in each case.

With `CCCCCCCCCCCCCCCC(=O)NC(CCCC(COC(=O)CCCCCCCCCCCCCCC)OC(=O)CCCCCCCCCCCCCCC)C(=O)N[C@@H](CO)C(=O)N[C@@H](CO)C(=O)N[C@@H](CC(N)=O)C(=O)N[C@@H](C)C(=O)N[C@@H](CO)C(=O)N[C@@H](CCCCN)C(=O)N[C@@H](CCCCN)C(=O)N[C@@H](CCCCN)C(=O)N[C@@H](CCCCN)C(=O)O` (stereo partly drawn) (Palmitoyl-[X1]SSNASKKKK-OH), the Activity in assay [4] worked out at 23%. As for `CCCCCCCCCCCCCCCC(=O)N[C@@H](CSCC(COC(=O)CCCCCCCCCCCCCCC)OC(=O)CCCCCCCCCCCCCCC)C(=O)N[C@@H](CCC(N)=O)C(=O)N1CCC[C@H]1C(=O)N[C@@H](CC(=O)O)C(=O)N[C@@H](CCCNC(=N)N)C(=O)N[C@@H](Cc1ccc(O)cc1)C(N)=O` (stereo partly drawn) (Palmitoyl-C(X2)QPDRY-NH2), in assay [5], the Activity was found to be 93%. Take `CCCCCCCCCCNC(=O)OC[C@H](CSC[C@@H](NC(C)=O)C(=O)NCCOCCOCCOCCP(=O)(O)O)OC(=O)NCCCCCCCCCC`: the EC50 in assay [1] and in assay [2] was 830 nM in each case. Take `CCCCCCCCCCCCCCCC(=O)OC[C@H](CSC[C@H](NC(=O)COCC(=O)NCCCOCCOCCOCCCNC(C)=O)C(=O)NCC(=O)N[C@H](CO)C(=O)COCC(=O)NCCCOCCOCCOCCCN)OC(=O)CCCCCCCCCCCCCCC`: in assay [6], the midpoint of the response, the EC50, lay at 20 nM. The same molecule returned a Ki in assay [7] of 91 nM. For the molecule `CCCCCCCCCCCCCCCC(=O)OCCC[C@H](CS[C@H](N)C(=O)N[C@@H](CO)C(=O)N[C@@H](CCCCN)C(=O)N[C@@H](CCCCN)C(=O)N[C@@H](CCCCN)C(=O)N[C@@H](CCCCN)C(=O)N[C@@H](CO)C(=O)N[C@@H](CC(C)C)C(=O)N[C@@H](CC(C)C)C(=O)N[C@@H](CCSC)C(=O)N[C@@H](Cc1c[nH]c2ccccc12)C(=O)N[C@H](C(=O)N[C@H](C(=O)N[C@@H](CCC(N)=O)C(=O)N[C@H](C(=O)O)C(C)C)[C@@H](C)O)[C@@H](C)CC)OC(=O)CCCCCCCCCCCCCCC`, in assay [6], the EC50 amounted to 383 nM.

Regarding `CCCCCCCCCCCCCC(=O)OC[C@H](CSC[C@@H](N)C(=O)NCCOCCOCCOCCP(=O)(O)O)OC(=O)CCCCCCCCCCCCC`, the EC50 in assay [1] and in assay [2] was 6.3 nM in each case. In assay [3], `CNc1ccc([N+](=O)[O-])cc1-n1cnc(-c2ccc(C(F)(F)F)cc2)c1` returned an EC50 of 5200 nM. `CCCCCCCCCCCCCCCC(=O)OCCSC[C@H](NC(=O)COCC(=O)NCCCOCCOCCOCCCNC)C(=O)NCC(=O)N[C@H](CO)C(=O)COCC(=O)NCCCOCCOCCOCCCN` displayed an EC50 in assay [6] of 674 nM. The molecule further returned a Ki in assay [7] of 22 nM.

`CCCCCCCCCCCCCCCC(=O)OCCSC[C@H](NC(=O)COCC(=O)NCCCOCCOCCOCCCNc1ccc(C2=C(/C=C/C3=[N+](CC)c4ccccc4C3(C)C)CCC/C2=C\C=C2\N(CCC)c3ccccc3C2(C)C)cc1)C(=O)NCC(=O)N[C@H](CO)C(=O)COCC(=O)NCCCOCCOCCOCCCN`: the IC50 in assay [6] amounted to 361 nM. This molecule also registered a Ki in assay [7] of 16 nM. In assay [6], `CCCCCCCCCCCCCCCC(=O)N[C@@H](SC[C@@H](COC(=O)CCCCCCCCCCCCCCC)OC(=O)CCCCCCCCCCCCCCC)C(=O)N[C@@H](CO)C(=O)N[C@@H](CCCCN)C(=O)N[C@@H](CCCCN)C(=O)N[C@@H](CCCCN)C(=O)N[C@@H](CCCCN)C(=O)N[C@@H](CO)C(=O)N[C@@H](CC(C)C)C(=O)N[C@@H](CC(C)C)C(=O)N[C@@H](CCSC)C(=O)N[C@@H](Cc1c[nH]c2ccccc12)C(=O)N[C@H](C(=O)N[C@H](C(=O)N[C@@H](CCC(N)=O)C(=O)N[C@H](C(=O)O)C(C)C)[C@@H](C)O)[C@@H](C)CC` came in with an EC50 of 23000 nM. In turn, `CCCCCCCCCCCCCCCC(=O)OCC[C@@H](CS[C@H](N)C(=O)N[C@@H](CO)C(=O)N[C@@H](CCCCN)C(=O)N[C@@H](CCCCN)C(=O)N[C@@H](CCCCN)C(=O)N[C@@H](CCCCN)C(=O)N[C@@H](CO)C(=O)N[C@@H](CC(C)C)C(=O)N[C@@H](CC(C)C)C(=O)N[C@@H](CCSC)C(=O)N[C@@H](Cc1c[nH]c2ccccc12)C(=O)N[C@H](C(=O)N[C@H](C(=O)N[C@@H](CCC(N)=O)C(=O)N[C@H](C(=O)O)C(C)C)[C@@H](C)O)[C@@H](C)CC)OC(=O)CCCCCCCCCCCCCCC` yielded an EC50 in assay [6] of 46200 nM. With `CCCCCCCCCCCCCCCC(=O)N[C@H](CSC[C@@H](COC(=O)NCCCCCCCCCC)OC(=O)NCCCCCCCCCC)C(=O)NCCOCCOCCOCCP(=O)(O)O`, the EC50 in assay [1] and in assay [2] was 2640 nM throughout. Regarding `CCCCCCCCCCCCCCCC(=O)N[C@@H](CSCC(COC(=O)CCCCCCCCCCCCCCC)OC(=O)CCCCCCCCCCCCCCC)C(=O)N[C@@H](CCCNC(=N)N)C(=O)N1CCC[C@H]1C(=O)N[C@@H](CC(=O)O)C(=O)N[C@@H](CCCNC(=N)N)C(=O)N[C@@H](Cc1ccc(O)cc1)C(N)=O` (stereo partly drawn) (Palmitoyl-C(X2)RPDRY-NH2), the Activity in assay [5] was 112%. Consider `CCCCCCCCCCCCCCCC(=O)OCC[C@@H](CS[C@H](NC(C)=O)C(=O)N[C@@H](CO)C(=O)N[C@@H](CCCCN)C(=O)N[C@@H](CCCCN)C(=O)N[C@@H](CCCCN)C(=O)N[C@@H](CCCCN)C(=O)N[C@@H](CO)C(=O)N[C@@H](CC(C)C)C(=O)N[C@@H](CC(C)C)C(=O)N[C@@H](CCSC)C(=O)N[C@@H](Cc1c[nH]c2ccccc12)C(=O)N[C@H](C(=O)N[C@H](C(=O)N[C@@H](CCC(N)=O)C(=O)N[C@H](C(=O)O)C(C)C)[C@@H](C)O)[C@@H](C)CC)OC(=O)CCCCCCCCCCCCCCC`, for which, in assay [6], the response was half-maximal at 17400 nM (EC50). For the molecule `CCCCCCCCCCNC(=O)OC[C@H](CSC[C@@H](NC(=O)CCCCC)C(=O)NCCOCCOCCOCCP(=O)(O)O)OC(=O)NCCCCCCCCCC`, the EC50 in assay [1] and in assay [2] was 830 nM in each case.

For the molecule `CCCCCCCCCCCC[C@H](CSC[C@@H](N)C(=O)NCCOCCOCCOCCP(=O)(O)O)OC(=O)NCCCCCCCCCCC`, the EC50 in assay [1] and in assay [2] was greater than 100000 nM in each case.

`CCCCCCCCCCCCCCCCOC[C@H](CSC[C@@H](N)C(=O)NCCOCCOCCOCCP(=O)(O)O)OCCCCCCCCCCCCCCCC`: the EC50 in assay [1] and in assay [2] was 3450 nM in each case. In assay [6], `CCCCCCCCCCCCCCCC(=O)OCCCCC[C@H](CS[C@H](N)C(=O)N[C@@H](CO)C(=O)N[C@@H](CCCCN)C(=O)N[C@@H](CCCCN)C(=O)N[C@@H](CCCCN)C(=O)N[C@@H](CCCCN)C(=O)N[C@@H](CO)C(=O)N[C@@H](CC(C)C)C(=O)N[C@@H](CC(C)C)C(=O)N[C@@H](CCSC)C(=O)N[C@@H](Cc1c[nH]c2ccccc12)C(=O)N[C@H](C(=O)N[C@H](C(=O)N[C@@H](CCC(N)=O)C(=O)N[C@H](C(=O)O)C(C)C)[C@@H](C)O)[C@@H](C)CC)OC(=O)CCCCCCCCCCCCCCC` gave an EC50 of 4440 nM.

On to `CCCCCCCCCCCCCCCC(=O)N[C@H](CSC[C@@H](COC(=O)CCCCCCCCCCC)OC(=O)CCCCCCCCCCC)C(=O)NCCOCCOCCOCCP(=O)(O)O`, for which the EC50 in assay [1] and in assay [2] was greater than 100000 nM in each case. In the case of `CCCCCCCCCCNC(=O)OC[C@H](CSC[C@@H](N)C(=O)NCCOCCOCCOCCP(=O)(O)O)OC(=O)NCCCCCCCCCC`, the EC50 in assay [1] and in assay [2] was 820 nM each time.
